Measured values published in PMC4492764, “Evaluation of biomarkers for in vitro prediction of drug-induced nephrotoxicity: comparison of HK-2, immortalized human proximal tubule epithelial, and primary cultures of human proximal tubular cells” (Pharmacology Research & Perspectives, 2015).
Structures can show the parent of a compound that is named as a salt.

What was measured:
Format in all cases: cell-based, human
[1] = test system: M-CSF; assay: M-CSF protein ELISA in HK-2 cells; parameters: key: +: statistically significant increase; −: no significant increase; conditions: protein levels in culture medium; 72 h time point
Procedure: (§1) Sandwich-ELISA experiments were conducted following the manufacturer's instructions with slight modifications. A 96-well microplate (MaxiSorp®, Nunc, Thermo Scientific, NSW, Australia) was coated with 100 μL of capture antibodies (diluted 1:200 in PBS) and incubated overnight. The plate was then washed twice with washing buffer (0.05% Tween 20 in PBS, pH 7.4) and blocked by adding 300 μL of blocking buffer (1% bovine serum albumin (BSA) in PBS) for 1 h at room temperature. After washing two times with PBS, 100 μL of samples (cell culture media or cell lysates) or standards were then added to each well and incubated for 2 h at room temperature. The biotinylated detection antibodies were then diluted in blocking buffer, added to each well and incubated for 2 h. Horseradish peroxidase (HRP)-labeled streptavidin (100 μL) was then added to bind to detection antibodies. To each well, 100 μL of substrate solution (1:1 mixture of H2O2 and tetramethylbenzidine) was added and incubated for 20 min before reaction termination with 50 μL of stop solution (2N H2SO4). The optical density of each well was measured at 450 nm using a POLARstar Omega plate reader (BMG Labtech). All assays were performed at least three times, with at least two technical replicates in each assay.

[2] = test system: M-CSF mRNA; assay: M-CSF mRNA qRT-PCR in HK-2 cells; parameters: key to Upregulation of M-CSF HK-2 R: +: statistically significant increase; −: no significant increase; conditions: for Upregulation of M-CSF HK-2 R: mRNA levels, 72 h time point
Procedure: (§2) Hs00273334_m1), Lcn2 (NGAL; Hs01008571_m1), and Csf1 (M-CSF; Hs00174164_m1). All probes span an exon-exon junction. The real-time quantitative reverse transcription PCR (qRT-PCR) was performed in a 10 μl final reaction mixture using a ViiA 7TM system (Applied Biosystems®, Sydney, NSW, Australia) based on the following thermo cycling conditions: 10 min at 95°C for one cycle, 15 sec at 95°C, 60 sec at 60°C for 40 cycles. The ViiA 7TM software was used for data analysis with Hprt1 expression used for normalization. All assays were performed at least three times, with at least two technical replicates in each assay.

[3] = test system: M-CSF; assay: M-CSF protein ELISA in hRPTECs; parameters: key: +: statistically significant increase; −: no significant increase; conditions: protein levels in culture medium; 72 h time point
Procedure: as §1

[4] = test system: M-CSF mRNA; assay: M-CSF mRNA qRT-PCR in hRPTECs; parameters: key to Upregulation of M-CSF hRPTECs R: +: statistically significant increase; −: no significant increase; conditions: for M-CSF mRNA levels in hRPTECs: 72 h (Fig.4C); for Upregulation of M-CSF hRPTECs R: mRNA levels, 72 h time point
Procedure: as §2

[5] = test system: KIM-1; assay: KIM-1 protein ELISA in freshly isolated hPT cells; conditions: for KIM-1 protein increase in hPT cell lysate: 24 h treatment; for KIM-1 protein upregulation in hPT cells: high doses, within 24 h; for Upregulation of KIM-1 hPT P(L): protein levels in cell lysates, table title says 72 h time point
Procedure: hPT cells were derived from whole human kidneys procured by the International Institute for the Advancement of Medicine (Edison, NJ). All tissues were scored by a pathologist as normal (i.e., derived from noncancerous, nondiseased tissue). […] Whole kidneys were perfused with Wisconsin medium and kept on ice until they arrived at the laboratory, which was usually within 24 h of removal from the donor. All buffers were continuously bubbled with 95% O2/5% CO2 and were maintained at 37°C. Minced cortical pieces from whole kidneys were subjected to collagenase digestion for 60 min, after which the supernatant was filtered through a 70-μm mesh filter to remove tissue fragments, centrifuged at 150g for 7 min, and the pellet resuspended in Dulbecco’s Modified Eagle’s Medium: […] Approximately, 5–7 × 10^6 cells were obtained per 1 g of human kidney cortical tissue. […] Composition of this supplemented medium was based on earlier work establishing optimal conditions for primary culture of rat PT cells (Lash et al., [1995]). Basal medium was a 1:1 mixture of DMEM/F12. […] Cultures were grown at 37°C in a humidified incubator under an atmosphere of 95% air/5% CO2 at pH 7.4. Cultures were grown to approximately 80–90% confluence (generally 5–6 days) prior to experiments. Cells were harvested by either scraping the flasks with a Teflon scraper or by brief incubation with Cellstripper (Cellgro, Herndon, VA) (in Ca^2+- and Mg^2+-free Hanks’ buffer). KIM-1 (DY1750), NGAL (DY1757), and M-CSF (DY216) Duo-Set® ELISA kits were purchased from R&D systems (Minneapolis, MN). Sandwich-ELISA experiments were conducted following the manufacturer’s instructions with slight modifications. A 96-well microplate (MaxiSorp®, Nunc, Thermo Scientific, NSW, Australia) was coated with 100 μL of capture antibodies (diluted 1:200 in PBS) and incubated overnight. The plate was then washed twice with washing buffer (0.05% Tween 20 in PBS, pH 7.4) and blocked by adding 300 μL of blocking buffer (1% bovine serum albumin (BSA) in PBS) for 1 h at room temperature. After washing two times with PBS, 100 μL of samples (cell culture media or cell lysates) or standards were then added to each well and incubated for 2 h at room temperature. The biotinylated detection antibodies were then diluted in blocking buffer, added to each well and incubated for 2 h. Horseradish peroxidase (HRP)-labeled streptavidin (100 μL) was then added to bind to detection antibodies. To each well, 100 μL of substrate solution (1:1 mixture of H2O2 and tetramethylbenzidine) was added and incubated for 20 min before reaction termination with 50 μL of stop solution (2N H2SO4). The optical density of each well was measured at 450 nm using a POLARstar Omega plate reader (BMG Labtech). All assays were performed at least three times, with at least two technical replicates in each assay.

[6] = MTT cytotoxicity assay in HK-2 cells; conditions: human, HK-2 cells; 72 h incubation; Mean ± Standard deviation, n = 3
Procedure: (§3) For the MTT assay, the medium was then removed, the dried crystals were resuspended in 60 μL of Dimethyl sulfoxide (DMSO), and the absorbance was read at 570 nm. For the resazurin assay, the fluorescence intensity was read using a PolarStar Omega plate reader (BMG Labtech; Mornington VIC, Australia) at excitation/emission 560/590 nm. All assays were performed at least three times. […] La Jolla, CA). Both MTT and resazurin assays were performed three times, with two technical replicates in each assay.

[7] = MTT cytotoxicity assay in hRPTECs; conditions: human, hRPTECs (passage 2); 72 h incubation; Mean ± Standard deviation, n = 3
Procedure: as §3

[8] = test system: HK-2 cells; assay: Resazurin cytotoxicity assay in HK-2 cells
Procedure: as §3

[9] = test system: hRPTECs; assay: Resazurin cytotoxicity assay in hRPTECs
Procedure: as §3

[10] = test system: hRPTECs; assay: MTT cytotoxicity assay in hRPTECs; conditions: 72 h incubation; Mean ± Standard deviation, n = 3
Procedure: as §3

[11] = 72 h, highest concentrations gentamicin 1 mmol/L, CsA 50 μmol/L, cell type not given
[12] = 72 h incubation, Mean ± Standard deviation, n = 3

Compound: N.N.[Cl][Pt][Cl] [Cisplatin, cisplatin]
- Upregulation of M-CSF HK-2 P [1]: −
- M-CSF mRNA level in HK-2 cells ([2]; 72 h exposure, P < 0.005): clearly increased
- Upregulation of M-CSF HK-2 R [2]: +
- Upregulation of M-CSF hRPTECs P [3]: +
- M-CSF mRNA levels in hRPTECs [4]: significant results
- Upregulation of M-CSF hRPTECs R [4]: +
- KIM-1 protein increase in hPT cell lysate ([5]; 100 μmol/L): 32 fold
- KIM-1 protein upregulation in hPT cells [5]: significant upregulation
- Upregulation of KIM-1 hPT P(L) [5]: >32-fold

Compound: CNC(C)C1CCC(N)C(OC2C(N)CC(N)C(OC3OCC(C)(O)C(NC)C3O)C2O)O1 (stereo not drawn) [Gentamicin, gentamicin sulfate]
- CC50 at 72 h [6]: > 1 mM
- CC50 at 72 h [7]: > 1 mM
- toxicity in resazurin assay at highest concentration tested [8, 11]: no toxicity
- toxicity in resazurin assay at highest concentration tested [9, 11]: no toxicity
- KIM-1 protein increase in hPT cell lysate ([5]; 300 μmol/L): fivefold
- KIM-1 protein upregulation in hPT cells [5]: significant upregulation
- Upregulation of KIM-1 hPT P(L) [5]: Greater than fivefold

Compound: Colistin sulfate
- CC50 [10]: > 300 µM
- CC50 [8, 12]: > 300 µM
- CC50 [9, 12]: 177 ± 15 µM
- Upregulation of M-CSF HK-2 P [1]: −
- Upregulation of M-CSF HK-2 R [2]: −
- Upregulation of M-CSF hRPTECs P [3]: −
- M-CSF mRNA levels in hRPTECs [4]: significant results
- Upregulation of M-CSF hRPTECs R [4]: +
- KIM-1 protein increase in hPT cell lysate ([5]; 300 μmol/L): 12 fold
- KIM-1 protein upregulation in hPT cells [5]: significant upregulation
- Upregulation of KIM-1 hPT P(L) [5]: >12-fold
